Where a name gives a salt, the structure may show the parent alone.

24 compounds from US20250134890A1, “ANTIMALARIAL HEXAHYDROPYRIMIDINE ANALOGUES” (UCB BIOPHARMA SRL, priority 2022, published 2025) can be followed below.

One assay deals with Plasmodium falciparum: 3D7 strain. Nature of the assay: P. falciparum 3D7 asexual blood stage assay (SYBR green readout). The class given is cell-based. Particulars: Plasmodium falciparum, 3D7, Erythrocyte, 72 h, P. falciparum 3D7 in human erythrocytes, 72 h incubation, SYBR green fluorescence. In a few lines:
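3D7-infected erythrocytes (5% haematocrit, 0.5% parasitaemia) were exposed 72 h at 37 °C under 1% O2/3% CO2 to a 20-point titration (50,000-15 nM final, 0.5% DMSO). Parasite DNA was read by SYBR green fluorescence after overnight lysis. Percent inhibition was set against mefloquine and DMSO, and EC50 came from a biphasic two-site fit.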
Compound `C[C@H]1C[C@@H](N2C(=N)N[C@](C)(c3cccc(-c4cccc(NS(C)(=O)=O)c4)c3Cl)CC2=O)CCC1(F)F` [Example 13, N-[3-(2-Chloro-3-{(4S)-1-[(1S,3S)-4,4-difluoro-3-methylcyclohexyl]-2-imino-4-methyl-6-oxohexahydro-pyrimidin-4-yl}phenyl)phenyl]-methanesulfonamide trifluoroacetic acid salt] displayed an IC50 of 10 nM.
As to `C[C@H]1C[C@H](N2C(=N)N[C@](C)(c3cccc(-c4ccc(Cl)cn4)c3Cl)CC2=O)CCS1(=O)=O` (relative stereo) [Example 76, (6S)-6-[2-Chloro-3-(5-chloro-pyridin-2-yl)phenyl]-2-imino-6-methyl-3-[(2S*,4R*)-2-methyl-1,1-dioxothian-4-yl]hexahydro-pyrimidin-4-one hydrochloride], it took 2460 nM to reach half-maximal inhibition (IC50).
Same read-out and setting: under `Cc1cc(-c2cccc([C@]3(C)CC(=O)N([C@H]4CCO[C@@H](C)C4)C(=N)N3)c2Cl)n(C)n1` [Example 52, (6S)-6-[2-Chloro-3-(2,5-dimethyl-pyrazol-3-yl)phenyl]-2-imino-6-methyl-3-[(2S,4S)-2-methyl-tetrahydropyran-4-yl]hexahydro-pyrimidin-4-one trifluoroacetic acid salt] stands 438 nM; under `C[C@H]1C[C@@H](N2C(=N)N[C@](C)(c3cccc(-c4ccc(F)cc4F)c3Cl)CC2=O)CCN1` (relative stereo) [Example 102, (6S)-6-[2-Chloro-3-(2,4-difluoro-phenyl)phenyl]-2-imino-6-methyl-3-[(2S*,4S*)-2-methylpiperidin-4-yl]hexahydropyrimidin-4-one hydrochloride], 504 nM.
On the same count and under the same terms, under `C[C@H]1C[C@@H](N2C(=N)N[C@](C)(c3cccc(-c4cnoc4)c3Cl)CC2=O)CCO1` [Example 54, (6S)-6-[2-Chloro-3-(isoxazol-4-yl)-phenyl]-2-imino-6-methyl-3-[(2S,4S)-2-methyltetrahydropyran-4-yl]hexahydropyrimidin-4-one trifluoroacetic acid salt] stands 42 nM.
Still for that read-out and setting: under `CC(C)c1ccccc1-c1cccc([C@]2(C)CC(=O)N([C@H]3CCO[C@@H](C)C3)C(=N)N2)c1Cl` [Example 36, (6S)-6-[2-Chloro-3-(2-isopropyl-phenyl)phenyl]-2-imino-6-methyl-3-[(2S,4S)-2-methyltetrahydro-pyran-4-yl]hexahydropyrimidin-4-one trifluoroacetic acid salt] stands 95 nM.
`C[C@@H]1C[C@H](N2C(=N)N[C@](C)(c3cccc(-c4cn(-c5cc(F)c(F)cc5F)nn4)c3Cl)CC2=O)CC[C@@H]1O` (relative stereo) [Example 113, (6S)-6-{2-Chloro-3-[1-(2,4,5-trifluorophenyl)-1,2,3-triazol-4-yl]-phenyl}-3-[(1R*,3R*,4S*)-4-hydroxy-3-methylcyclohexyl]-2-imino-6-methylhexahydro-pyrimidin-4-one hydrochloride] displayed an IC50 of 540 nM.
Regarding `COc1ccc(-c2cccc([C@]3(C)CC(=O)N([C@H]4CCO[C@@H](C)C4)C(=N)N3)c2Cl)cn1` [Example 43, (6S)-6-[2-Chloro-3-(6-methoxy-pyridin-3-yl)phenyl]-2-imino-6-methyl-3-[(2S,4S)-2-methyl-tetrahydropyran-4-yl]hexahydro-pyrimidin-4-one trifluoroacetic acid salt], it took 94 nM to reach half-maximal inhibition (IC50).
`C[C@H]1C[C@@H](N2C(=N)N[C@](C)(c3cccc(-c4ccc(F)c(F)c4)c3Cl)CC2=O)CCO1` [Example 38, (6S)-6-[2-Chloro-3-(3,4-difluoro-phenyl)phenyl]-2-imino-6-methyl-3-[(2S,4S)-2-methyltetrahydro-pyran-4-yl]hexahydropyrimidin-4-one trifluoroacetic acid salt] registered an IC50 of 135 nM.
Still for that read-out and setting: under `C[C@H]1C[C@@H](N2C(=N)N[C@](C)(c3cccc(-c4cn(-c5ccccc5)nn4)c3Cl)CC2=O)CCO1` [Example 126, (6S)-6-[2-Chloro-3-(1-phenyl-1,2,3-triazol-4-yl)phenyl]-2-imino-6-methyl-3-[(2S,4S)-2-methyl-tetrahydropyran-4-yl]hexahydro-pyrimidin-4-one trifluoroacetic acid salt] stands 5 nM; under `COc1cc(-c2cccc([C@]3(C)CC(=O)N([C@H]4CCO[C@@H](C)C4)C(=N)N3)c2Cl)ccn1` [Example 59, (6S)-6-[2-Chloro-3-(2-methoxy-pyridin-4-yl)phenyl]-2-imino-6-methyl-3-[(2S,4S)-2-methyl-tetrahydropyran-4-yl]hexahydro-pyrimidin-4-one trifluoroacetic acid salt], 61 nM; under `C[C@H]1C[C@@H](N2C(=N)N[C@](C)(c3cccc(-c4ccnnc4)c3Cl)CC2=O)CCO1` [Example 33, (6S)-6-[2-Chloro-3-(pyridazin-4-yl)phenyl]-2-imino-6-methyl-3-[(2S,4S)-2-methyltetrahydropyran-4-yl]hexahydropyrimidin-4-one trifluoroacetic acid salt], 186 nM.
The same measure, in the same setting: under `C[C@H]1C[C@@H](N2C(=N)N[C@](C)(c3cccc(-c4ccc(OC(F)(F)F)cc4Cl)c3Cl)CC2=O)CCO1` [Example 2, (6S)-6-{2-Chloro-3-[2-chloro-4-(trifluoromethoxy)phenyl]phenyl}-2-imino-6-methyl-3-[(2S,4S)-2-methyltetrahydropyran-4-yl]-hexahydropyrimidin-4-one hydrochloride] stands 78 nM; under `C[C@H]1C[C@@H](N2C(=N)N[C@](C)(c3cccc(-c4cn([C@@H](C)c5cccnc5)nn4)c3Cl)CC2=O)CCO1` [Example 115, (6S)-6-(2-Chloro-3-{1-[(1S)-1-(pyridin-3-yl)ethyl]-1,2,3-triazol-4-yl}phenyl)-2-imino-6-methyl-3-[(2S,4S)-2-methyltetrahydropyran-4-yl]hexahydropyrimidin-4-one trifluoroacetic acid salt], 210 nM.
The same measure, in the same setting: for `C[C@@H]1C[C@H](N2C(=N)N[C@](C)(c3cccc(-c4ccc(OC(F)F)nc4)c3Cl)CC2=O)CCS1(=O)=O` (relative stereo) [Example 70, (6S)-6-{2-Chloro-3-[6-(difluoro-methoxy)pyridin-3-yl]phenyl}-2-imino-6-methyl-3-[(2R*,4R*)-2-methyl-1,1-dioxothian-4-yl]-hexahydropyrimidin-4-one hydrochloride] the value was 85 nM; for `C[C@H]1C[C@@H](N2C(=N)N[C@](C)(c3cccc(-c4ccc(Cl)cn4)c3Cl)CC2=O)CCS1(=O)=O` (relative stereo) [Example 75, (6S)-6-[2-Chloro-3-(5-chloro-pyridin-2-yl)phenyl]-2-imino-6-methyl-3-[(2S*,4S*)-2-methyl-1,1-dioxothian-4-yl]hexahydro-pyrimidin-4-one hydrochloride], 217 nM.
For the compound `C[C@H]1C[C@@H](N2C(=N)N[C@](C)(c3cccc(-c4ccc(OC(F)(F)F)nc4)c3Cl)CC2=O)CCS1(=O)=O` (relative stereo) [Example 78, (6S)-6-{2-Chloro-3-[6-(trifluoro-methoxy)pyridin-3-yl]phenyl}-2-imino-6-methyl-3-[(2S*,4S*)-2-methyl-1,1-dioxothian-4-yl]-hexahydropyrimidin-4-one hydrochloride], the IC50 stood at 365 nM.
Still for that read-out and setting: under `C[C@@]1(c2cccc(-c3cccc(Cl)c3)c2Cl)CC(=O)N([C@@H]2CCC(F)(F)[C@@H](O)C2)C(=N)N1` (relative stereo) [Example 24, (6S)-6-[2-Chloro-3-(3-chloro-phenyl)phenyl]-3-[(1R*,3S*)-4,4-difluoro-3-hydroxycyclohexyl]-2-imino-6-methylhexahydro-pyrimidin-4-one trifluoroacetic acid salt] stands 112 nM.
The same measure, in the same setting: under `C[C@H]1C[C@@H](N2C(=N)N[C@](C)(c3cccc(-c4cc(F)ccc4F)c3Cl)CC2=O)CCO1` [Example 42, (6S)-6-[2-Chloro-3-(2,5-difluoro-phenyl)phenyl]-2-imino-6-methyl-3-[(2S,4S)-2-methyltetrahydro-pyran-4-yl]hexahydropyrimidin-4-one trifluoroacetic acid salt] stands 88 nM; under `CC(n1cc(-c2cccc([C@]3(C)CC(=O)N([C@H]4CCO[C@@H](C)C4)C(=N)N3)c2Cl)nn1)C12CC(CO1)C2` (stereo partly drawn) [Example 125, (6S)-6-(2-Chloro-3-{1-[1-(2-oxa-bicyclo[2.1.1]hexan-1-yl)ethyl]-1,2,3-triazol-4-yl}phenyl)-2-imino-6-methyl-3-[(2S,4S)-2-methyl-tetrahydropyran-4-yl]hexahydro-pyrimidin-4-one trifluoroacetic acid salt], 220 nM.
Still for that read-out and setting: for `C[C@H]1C[C@@H](N2C(=N)N[C@](C)(c3cccc(-c4cncc(Cl)c4)c3Cl)CC2=O)CC[C@H]1O` (relative stereo) [Example 82, (6S)-6-[2-Chloro-3-(5-chloro-pyridin-3-yl)phenyl]-3-[(1S*,3S*,4R*)-4-hydroxy-3-methylcyclohexyl]-2-imino-6-methylhexahydropyrimidin-4-one hydrochloride] the value was 265 nM.

Staying with this assay, now noted: Plasmodium falciparum, Erythrocyte; P. falciparum 3D7 in human erythrocytes, 72 h incubation, SYBR green fluorescence; read-out: IC50.
On to `CN1CCC(N2C(=N)N[C@](C)(c3cccc(-c4ccc(OC(F)(F)F)cc4Cl)c3Cl)CC2=O)CC1` [Example 91, (6S)-6-{2-Chloro-3-[2-chloro-4-(trifluoromethoxy)phenyl]phenyl}-2-imino-6-methyl-3-(1-methyl-piperidin-4-yl)hexahydropyrimidin-4-one], for which the IC50 stood at 6400 nM.
As for `CN(C)[C@H]1C[C@H](N2C(=N)N[C@](C)(c3cccc(-c4ccc(F)cc4F)c3Cl)CC2=O)C1` (single isomer, unassigned; isomer 1) [Example 88], the IC50 turned out to be 657 nM.
Still for that read-out and setting: under `C[C@H]1C[C@@H](N2C(=N)N[C@](C)(c3cccc(-c4cccc(N=S(C)(C)=O)c4)c3Cl)CC2=O)CCO1` [Example 3, (6S)-6-[2-Chloro-3-(3-{[(dimethyl)-(oxo)-26-sulfanylidene]amino}-phenyl)phenyl]-2-imino-6-methyl-3-[(2S,4S)-2-methyltetrahydro-pyran-4-yl]hexahydropyrimidin-4-one hydrochloride] stands 90 nM.
